Reference: US6916843B1, “Anti-inflammatory actions of cytochrome P450 expoxygenase-derived eicosanoids” (The United States of America as represented by the …, priority 1999, dated 2005)

Assays:
NF-κB = NF-κB heterologous promoter (pκB.Luc) luciferase reporter in bovine endothelial cells; format: cell-based
Method: FIG. 2 is a set of bar graphs of cell-surface enzyme immunoassays. […] The difference between treatment with TNF-α alone and in the presence of [11,12]-EET were statistically significant (*p<0.05, **p<0.01), OD, optical density. […] After stimulation with TNF-α (10 ng/ml) in the presence or absence of EET, promoter activity was determined relative to basal activity. *p<0.01 vs. TNF-α alone.
(§1) To localize cis-acting elements in the VCAM-1 promoter that might mediate the inhibitory effects of [11,12]-EET, we transiently transfected bovine aortic endothelial cells with a −755 bp VCAM-1 promoter construct (DeCaterina et al., 96 J. Clin. Invest. 60 (1995)). Stimulation with TNF-α induced a 13-fold increase in relative VCAM-1 promoter activity that was abolished by cotreatment with [11,12]-EET. […] To confirm that the tandem κB sites in the VCAM-1 promoter are repressed by [11,12]-EET we subcloned them into a heterologous promoter construct containing the SV40 enhancer linked to the luciferase reporter gene (pκB.Luc). Stimulation of transfected endothelial cells with TNF-α induced a 6-fold increase in pκB.Luc promoter activity that was abolished by co-treatment with [11,12]-EET, but not [14,15]-EET (FIG. 2C). […] Compared to transfection with the empty pcDNA3.1 vector, overexpression of CYP2J2 decreased TNF-induced VCAM-1 and pκB.Luc promoter activity by 70-80% which were reversed in the presence of SKF525A (FIG. 2C). Neither transfection with CYP2J2 cDNA alone nor treatment with SKF525A alone affected basal promoter activity.

VCAM-1 promoter = VCAM-1 promoter construct activity in transiently transfected bovine aortic endothelial cells; format: cell-based
Text: as §1, with “-755” for “−755”, “SK[…]” for “SKF525A”

[1] = system: bovine aortic endothelial cells (BAECs); experiment: Hypoxia-reoxygenation-induced cell injury in BAECs (cell number, LDH release, trypan blue); format: cell-based
Method: Effects of P450-derived arachidonic acid metabolites on hypoxia-reoxygenalion-induced injury in BAECs. BAECs, either untransfected, or 48 hours after transfection with pcDNA3.1/GFP or pcDNA3.1/CYP2J2, or 10 min after treatment with eicosanoids, epoxide hydrolase inhibitors or vehicle, were exposed to hypoxia (95% nitrogen plus 5% carbon dioxide) for 24 hours, followed by reoxygenation (95% air plus 5% carbon dioxide) for 4 hours using an environmental chamber within a 37° C. incubator. Cells maintained under continuous (28 hours) normoxic conditions served as controls.
EETs were prepared by total chemical synthesis as previously described (Corey el al., 102 J. Am. Chem. Soc. 1433-1435 (1980), Falck et al., 23 Tetrahedron Lett. 1755-1756 (1982)). DHETs were prepared by chemical hydration of EETs as described by Capdevila et al., 187 Methods Enzymol. 386-394 (1990). Synthetic EETs and DHETs were purified by reverse-phase HPLC prior to use. BAECs, grown to ˜85% confluency, were treated with either synthetic [11,12]-EET, [11,12]-DHET, or [14,15]-EET in ethanol vehicle (1 μmol/L each, final concentration) for 10 min prior to exposure to hypoxia-reoxygenation. […] Cells treated with vehicle alone served as controls.
After hypoxia-reoxygenation, the cell number was determined using a hemocytometer and the degree of cell injury was assessed by measuring lactate dehydrogenase release into the culture medium using the CytoTox 96 Non-Radioactive Cytotoxicity Assay Kit (Promega, Madison, Wis.) and by counting the number of trypan blue dye stained cells. Data are expressed as a percentage of values obtained from control cells maintained under normoxic conditions.

IκB-α = experiment: Fate of IκB-α after TNF-α stimulation of human endothelial cells; format: cell-based; details: TNF-α 10 ng/ml, 15 min; EET 100 nM
Text: Co-treatment with [11,12]-EET prevented the nuclear accumulation of RelA. Since the nuclear translocation of RelA requires the degradation of its endogenous cytoplasmic inhibitor, inhibitor kappa B (IκB-α), we followed the fate of IκB-α after TNF-α stimulation in the presence or absence of [11,12]-EET. Stimulation of human endothelial cells with TNF-α caused a rapid and almost complete disappearance of IκB-α which was prevented by co-treatment with [11,12]-EET, but not [14,15]-EET.
(§2) A set of gel shift assays was performed. […] In some assays, [11,12]-EET (100 nM) was also added directly to the IKK assay (in vitro). As a control for nonspecific phosphorylation, the assay was performed without the addition of immunoprecipitated IKK (no enzyme) or in the presence of a IκB-α mutant (ΔSer 32, Ser 36→Thr) as substrate. The assay was performed three times with similar results.
(§3) Specificity of IKB was determined by the complete absence of phosphorylation when the mutated IκB-α substrate, GST-1κB-α (Δ32,36: S→T) which cannot be phosphorylated at serine residues 32 and 36, was substituted for wild-type GST-IκB-α.

IκB kinase (IKK) = experiment: IKK activity assay with GST-IκB-α substrate, TNF-α-stimulated endothelial cells; format: biochemical, human; details: 100 nM, TNF-α 10 ng/ml, 15 min
Method: as §2, §3

[2] = overexpression vs empty pcDNA3.1 vector
[3] = CYP2J2-transfected vs GFP-transfected BAECs

Compound: CYP2J2: CYP2J2 cDNA (1.9 kb) subcloned into plasmid pcDNA3.1, transfected into endothelial cells
- decrease of TNF-induced pκB.Luc promoter activity (NF-κB; [2]): 70-80%
- decrease of TNF-induced VCAM-1 promoter activity (VCAM-1 promoter; [2]): 70-80%
- cell number after hypoxia-reoxygenation [1, 3]: slightly increased
- lactate dehydrogenase released into culture medium after hypoxia-reoxygenation [1, 3]: significantly less
- trypan blue stained cells after hypoxia-reoxygenation [1, 3]: significantly fewer

Compound: CCCCC/C=C\C[C@H]1O[C@H]1C/C=C\C/C=C\CCCC(=O)O [[11,12]-EET]
- effect on TNF-α-induced pκB.Luc promoter activity (NF-κB; 100 nM, TNF-α 10 ng/ml (6-fold increase)): abolished
- effect on TNF-α-induced VCAM-1 promoter activity, −755 bp construct (VCAM-1 promoter; cotreatment with TNF-α (13-fold increase)): abolished
- effect on TNF-α-induced disappearance/degradation of IκB-α (IκB-α): prevented
- hypoxia-reoxygenation-induced cell injury, number of trypan blue stained cells ([1]; 1 μmol/L, added 10 min prior to hypoxia (24 h hypoxia, 4 h reoxygenation)): significantly attenuates
- inhibition of TNF-α-induced IKK activity (IκB kinase (IKK)): > 90%
